{"source": "patent US6969702B2", "about": "“Compounds and methods for increasing neurogenesis” (priority 2002, dated 2005)", "key": {"[1]": {"system": "newborn cells (BrdU positive) in sub ventricular zone and dentate gyrus", "assay": "In vivo progenitor cell proliferation (BrdU)", "set-up": "species or system Wistar rats", "conditions": "10 mg/kg intraperitoneally twice daily 7 days with BrdU"}, "[2]": {"system": "neural stem cells", "assay": "In vitro proliferation measured with ATP (Example 14)", "assay_type": "cell-based", "set-up": "cell proliferation (ATP), fold the level of control cells: dose or concentration left out as unconfirmed", "protocol": "To determine proliferation, neurospheres were split and seeded in Neurosphere medium as single cells in 96-well plates, at 10,000 cells/well. The following experiment was performed in sets of four parallel experiments (i.e., performed in quadruplicate) such that the cells may be used for different assays. Substances to be tested were added and cells were incubated at 37° C. for 4 days. Cells were lysed with 0.1 % Triton-X100 in Tris-EDTA buffer. Intracellular ATP was measured using an ATP-SL kit according to the manufacturer's instructions (BioThema, Sweden)."}, "[3]": {"system": "adenylate cyclase in UMR 106-06 cells", "conditions": "relative to sCT; cited from earlier work"}, "[4]": {"molecular_target": "dipeptidyl peptidase-IV (DPP-VI) (Homo sapiens, UniProt P27487)", "sequence (P27487 whole entry, species assumed)": "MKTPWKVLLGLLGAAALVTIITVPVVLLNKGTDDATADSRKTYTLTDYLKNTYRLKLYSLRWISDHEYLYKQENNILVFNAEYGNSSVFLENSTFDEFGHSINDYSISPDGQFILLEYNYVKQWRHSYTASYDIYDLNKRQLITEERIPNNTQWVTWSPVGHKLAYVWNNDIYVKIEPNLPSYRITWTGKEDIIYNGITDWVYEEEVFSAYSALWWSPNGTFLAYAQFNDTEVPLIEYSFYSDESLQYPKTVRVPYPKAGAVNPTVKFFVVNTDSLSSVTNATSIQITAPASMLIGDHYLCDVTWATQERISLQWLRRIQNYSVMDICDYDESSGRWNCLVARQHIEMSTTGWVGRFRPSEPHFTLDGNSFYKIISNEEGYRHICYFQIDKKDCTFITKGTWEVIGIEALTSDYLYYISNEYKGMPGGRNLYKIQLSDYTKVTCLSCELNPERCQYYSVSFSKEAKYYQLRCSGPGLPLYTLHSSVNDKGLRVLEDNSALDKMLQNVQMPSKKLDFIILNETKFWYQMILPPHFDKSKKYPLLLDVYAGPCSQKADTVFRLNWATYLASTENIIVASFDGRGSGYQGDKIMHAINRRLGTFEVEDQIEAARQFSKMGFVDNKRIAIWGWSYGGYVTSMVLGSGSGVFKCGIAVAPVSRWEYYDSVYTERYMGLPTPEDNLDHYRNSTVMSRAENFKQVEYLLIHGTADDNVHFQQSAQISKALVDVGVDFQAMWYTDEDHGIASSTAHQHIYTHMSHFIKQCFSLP", "conditions": "in mammals; cited from earlier work"}, "[5]": {"system": "mouse adult neural stem cells", "assay": "ATP-assay: proliferation (ATP levels) of neurosphere-derived cells"}, "[6]": {"system": "Adult neural stem cells", "assay": "Flow cytometry for early neuronal marker Doublecortin", "conditions": "100 nM"}, "[7]": {"system": "cAMP activation in mouse adult neural stem cells", "assay": "cAMP detection (HitHunter EFC Cyclic AMP Chemiluminescence Assay)"}, "[8]": {"system": "NFAT-Luciferace reporter (Ca^2+)", "conditions": "100 nM"}, "[9]": {"system": "CREB phosphorylation in human adult neural stem cells", "assay_type": "cell-based", "conditions": "100 nM"}, "[10]": {"system": "CREB phosphorylation in mouse adult neural stem cells", "assay_type": "cell-based", "conditions": "100 nM"}}, "note": "Marks after values point to notes of the source that are not given here. Ends that are not written are not given here."}
{"compound": "CC[C@H](C)[C@H](NC(=O)[C@H](C)NC(=O)[C@@H](NC(=O)[C@H](CCC(N)=O)NC(=O)[C@@H]1CCCN1C(=O)[C@H](Cc1ccccc1)NC(=O)[C@@H](NC(=O)[C@H](Cc1c[nH]cn1)NC(=O)[C@H](Cc1ccccc1)NC(=O)[C@H](CCCCN)NC(=O)[C@H](CC(N)=O)NC(=O)[C@H](Cc1ccccc1)NC(=O)[C@H](CC(=O)O)NC(=O)[C@H](CCC(N)=O)NC(=O)[C@@H](NC(=O)[C@H](Cc1ccc(O)cc1)NC(=O)[C@@H](NC(=O)CNC(=O)[C@H](CC(C)C)NC(=O)[C@H](CCSC)NC(=O)[C@@H]1CSSC[C@H](N)C(=O)NCC(=O)N[C@@H](CC(N)=O)C(=O)N[C@@H](CC(C)C)C(=O)N[C@@H](CO)C(=O)N[C@@H]([C@@H](C)O)C(=O)N1)[C@@H](C)O)[C@@H](C)O)[C@@H](C)O)[C@@H](C)O)C(=O)NCC(=O)N[C@H](C(=O)NCC(=O)N[C@@H](C)C(=O)N1CCC[C@H]1C(N)=O)C(C)C", "note": "[calcitonin]", "values": [{"measurement": "number of newborn cells (BrdU positive compared to sham injected)", "setting": "[1]", "result": "significant increase"}, {"measurement": "cell proliferation (ATP), fold the level of control cells", "setting": "[2]; 4 days", "result": 2.5, "unit": "fold"}, {"measurement": "EC50", "setting": "[2]; neural stem cell cultures, read-out: EC50 value (proliferation dose-response curve, FIG. 3)", "result": 0.03, "unit": "nM"}]}
{"compound": "CSNLSTCVLGRLSKDLHRLQTFPRTNTGAGVP (cysteine pairing not given here) [[Arg11, 18, Lys14]-sCT]", "values": [{"measurement": "potency in activating adenylate cyclase", "setting": "[3]", "result": "equivalent to that of sCT"}]}
{"compound": "His-Asp-Glu-Phe-Glu-Arg-His-Ala-Glu-Gly-Thr-Phe-Thr-Ser-Asp-Val-Ser-Ser-Tyr-Leu-Glu-Gly-Gln-Ala-Ala-Lys-Glu-Phe-Ile-Ala-Trp-Leu-Val-Lys-Gly-Arg-Gly [GLP-1]", "values": [{"measurement": "halftime of degradation", "setting": "[4]", "result": "less than 2 min"}]}
{"compound": "cholera toxin", "values": [{"measurement": "proliferation of neural stem cells", "setting": "[5]", "result": "increase"}, {"measurement": "ATP (nM ATP/well)", "setting": "[5]; 100 nM", "result": "12.9 ± 1.6", "unit": "nM ATP/well"}, {"measurement": "Fold Induction ATP", "setting": "[5]; 100 nM", "result": "1.4* fold"}, {"measurement": "Fold Induction ATP", "setting": "[5]; 100 nM, 4 days", "result": "1.4* fold"}, {"measurement": "Fold Induction (Doublecortin-positive cells)", "setting": "[6]", "result": 2.6, "unit": "fold"}, {"measurement": "% Doublecortin-positive cells", "setting": "[6]; 4 days", "result": 6.7, "unit": "%"}, {"measurement": "cAMP (pmol/well)", "setting": "[7]", "result": "0.07 ± 0.01", "unit": "pmol/well"}, {"measurement": "Fold Induction cAMP", "setting": "[7]; 10 nM", "result": "3.1*** fold"}, {"measurement": "Fold Induction NFAT", "setting": "[8]", "result": "1.4** fold"}, {"measurement": "NFAT Luciferace units", "setting": "[8]", "result": "11.6 ± 1.0", "unit": "Luciferace units"}, {"measurement": "CREB phosphorylation", "setting": "[9]", "result": "up-regulation of CREB phosphorylation"}, {"measurement": "CREB phosphorylation", "setting": "[10]", "result": "up-regulation of CREB phosphorylation"}]}
